Legend:
Type in all cases: cell-based
[1] = tested on: Escherichia coli (E. coli - ATCC #10536); test: Automated assessment of efficacy in surfactant base, OD readout after 15 seconds exposure (Example 3)
Experimental: In these examples, the efficacy of combinations of thymol and p-menthene alcohols were tested in a surfactant cleansing formulation comprising 2.85% sodium cocoyl glycinate and 1.85% sodium lauroamphoacetate. This corresponds to a 50% in use dilution with water of a typical neat formulation containing 5.7% cocoyl glycinate and 3.7% % sodium lauroamphoacetate during hand washing. Solutions were prepared such that the concentrations of the surfactant components and test actives were 1.1 times the final desired concentration in order to allow for dilution with the bacterial inoculum in the test. The solutions were manually adjusted to pH 10.0 by dropwise addition of sodium hydroxide solution, as measured with a pH meter at ambient temperature. […]
The efficacy of the combinations of the present invention was determined against the same bacterium as in Example 1, Escherichia coli (E. coli—ATCC #10536), at a concentration of approximately 1×10^8 bacteria per mL.
Tests were conducted using standard microtiter plate assays using an automated liquid handling system. […] After 5 minutes in the DIE quench, the optical density (OD) was measured for each plate in turn at two specific wavelengths (450 nm and 590 nm). […] Delta OD values were calculated by subtracting […] at time=16 hours. […]

[2] = tested on: Escherichia coli (E. coli - ATCC #10536); test: High resolution MBC microtiter plate synergy assay in phosphate buffer containing 35% dipropylene glycol (Example 2); settings: for MBC of component alone (MBCA, MBCB): complete kill in 15 seconds, phosphate buffer with 35% DPG, E. coli 10536; for ΣFBC: component alone
Experimental: The materials were sourced in the same way as for Example 1. Synergy tests were conducted using standard microtiter plate assays with phosphate buffer containing 35% dipropylene glycol (DPG). […] The MBC plate was inoculated one column at a time with the test microorganism. An aliquot of the inoculated well was transferred at 15 seconds to a plate containing a neutralizing agent (D/E Neutralizing Broth), mixed and held for 5 minutes before being transferred to a growth plate containing trypticase soy broth (TSB). The TSB plate was incubated at 37° C. and read for the presence/absence of growth at 24 hours. […] This microorganism is representative of natural contaminants in many consumer and industrial applications.

[3] = tested on: Escherichia coli (10536 strain); test: Assessment of antimicrobial efficacy and synergy: 15 seconds contact suspension kill test (Example 1); settings: for MBC (minimum biocidal concentration): lowest concentration giving complete kill of E. coli, 15 seconds contact, component alone

`CC1=CCC(C(C)CO)CC1` (stereo not drawn) [2-(4-methylcyclohex-3-enyl)-propan-1-ol, 2-(4-methylcyclohex-3-enyl)propan-1-ol] was tested, and the “15 second bactericidal efficacy in combination with thymol (in words)” value ([1]; in combination with thymol at concentrations lower than their MBC, same surfactant formulation, all 4 or 6 replicates) was “complete kill”, the “MBC of component alone (MBCA, MBCB)” value [2] was 0.3 weight % and the ΣFBC [2] was 1.00. The “Cb (end-point of second component in the mixture)” value ([2]; with Ca 0.08 of thymol, ratio A to B 1 to 2.5) was 0.2 weight %, the “Cb (end-point of second component in the mixture)” value ([2]; with Ca 0.2 of thymol, ratio A to B 1 to 0.13) was 0.025 weight % and the “Cb (end-point of second component in the mixture)” value ([2]; with Ca 0.2 of thymol, ratio A to B 1 to 0.25) was 0.05 weight %. The “Cb (end-point of second component in the mixture)” value ([2]; with Ca 0.2 of thymol, ratio A to B 1 to 0.38) was 0.075 weight %, the “Cb (end-point of second component in the mixture)” value ([2]; with Ca 0.2 of thymol, ratio A to B 1 to 0.5) was 0.1 weight % and the “MBC (minimum biocidal concentration)” value [3] was 0.15 % w/v. For the same compound, the “MBC of p-menthene alcohol” value ([3]; value used to calculate FBC, for piperitols a lower boundary) was 0.15 % (w/v).

For `CC1=CCC(C(C)(C)O)CC1` (stereo not drawn) [alpha-terpineol, reference compound], the “MBC (minimum biocidal concentration)” value [3] was 0.4 % w/v.

With `Cc1ccc(C(C)C)c(O)c1` [thymol, 2-isopropyl-5-methylphenol, reference compound] the “MBC (minimum biocidal concentration)” value ([1]; in 2.85% sodium cocoyl glycinate + 1.85% sodium lauroamphoacetate solution at pH 10) was over 0.2 % w/v, the “MBC of component alone (MBCA, MBCB)” value [2] was 0.3 weight % and the ΣFBC [2] was 1.00. For the same compound, the “Ca (end-point of thymol in the mixture)” value ([2]; with Cb 0.025 of 2-(4-methylcyclohex-3-enyl)-propan-1-ol, ratio A to B 1 to 0.13) was 0.2 weight %, the “Ca (end-point of thymol in the mixture)” value ([2]; with Cb 0.05, ratio A to B 1 to 0.25) was 0.2 weight % and the “Ca (end-point of thymol in the mixture)” value ([2]; with Cb 0.075, ratio A to B 1 to 0.38) was 0.2 weight %. The “Ca (end-point of thymol in the mixture)” value ([2]; with Cb 0.1, ratio A to B 1 to 0.5) was 0.2 weight %, the “Ca (end-point of thymol in the mixture)” value ([2]; with Cb 0.2, ratio A to B 1 to 2.5) was 0.08 weight % and the “thymol concentration required for complete bacterial kill in combination” value ([3]; in combination with […](w/v) of 2-(4-methylcyclohex-3-enyl)-propan-1-ol, 4-fold reduction) was 0.0125%. The MBC of thymol ([3]; value used to calculate FBC) was 0.025 % (w/v).
